Test results from patent US20220281860A1, “COMPOUNDS AND METHODS OF TREATING RNA-MEDIATED DISEASES” (Arrakis Therapeutics, Inc., priority 2016, published 2022).
Where a name gives a salt, the structure may show the parent alone.

Tests used:
[1] = test system: RNA3WJ_0.0.0_5IB_3FAM (3WJ_0.0.0_5IB_3FAM) RNA three way junction; experiment: Thermal shift binding assay; conditions: for Melt. Temp. with cmpd / Shift melt. Temp.: RNA sequence 3WJ_0.0.0_5IB_FAM; for Melt. Temp. with cmpd: melting temperature in presence of compound; for Shift melt. Temp.: melting temperature with cmpd minus without cmpd
Description: (§1) Purpose: Test binding of compounds for RNA three way junction (for example, a construct of 38 nt). Thermal shift assay based on established fluorescence quenching assay utilizing FAM as fluorescence tag and Iowa Black as quencher. Tags were attached at the 3′ and 5′ end, respectively. Stable formation of 3WJ upon compound binding would lead to quenching of the FAM fluorescence due to close proximity of the Iowa Black tag. Thermal unfolding leads to increase of fluorescence emission. Assay readout: FAM (465-510 nm) Thermal Shift.
(§2) Assay sample buffer used: 10 mM CacoK pH 7.2, 30 mM NaCl. Buffer preparation in Dnase/Rnase Free distilled water (Gibco Life Technologies).
(§3) Tool compounds provided as dry powder are prepared as 50 mM stock solution in 100% d6-DMSO. Stock solutions of 50 mM concentration in d6-DMSO are stored at RT.
(§4) Sample plate: Roche, Light Cycler480 Multiwell Plate96, white, REF 04729692001. (Dilution plate: Greiner REF 781101, PS-Microplate, 384 well, clear). Thermal Shift device: Roche, Light Cycler480.
(§5) Daily fresh (10 ml): 1 ml 100 mM CacoK pH 7.2 and 0.3 ml 1 M NaCl filled up to 10 ml with Dnase/Rnase Free distilled water.
(§6) Dilute the RNA 1:10 (final 10 μM) in Assay Buffer.
(§7) Heat up the diluted RNA up to 90° C. for 5 min (sealed Eppendorf Tube).
(§8) Cool down the RNA probe slowly to RT.
(§9) Dilute the compounds to 800 μM in DMSO (Assay: 8 μM).
(§10) 78.4 μL Assay Buffer are pipetted into Greiner REF 781101, PS-Microplate, 384 (each well needed).
(§11) Add 0.8 μL of the RNA-Solution ([…]).
(§12) Add 0.8 μL Compound-Solution ([…]).
(§13) Final concentrations in the sample: 1 μM RNA, 8 μM compound, 1% DMSO
(§14) Pipet 20 μL Sample Solution into Roche, Light Cycler480 Multiwell Plate96, white, REF 04729692001.
(§15) When sample transfer is finished, seal the plate with a clear topseal (part of REF 04729692001).
(§16) Centrifuge the plate with a table-top device to spin down the samples.
(§17) Measure the 96 plate with the LightCycler480 (Channel: 480/510 nm; Temperature: 41-91° C.).
(§18) Analyse measurement-data with the MeltingCurveGenotyping Mode.
(§19) Settings: Acquisition mode: continuous; Ramp rate: 0.1 C.°/sec; Acquisition: 6/C.° Melt Curve Genotyping for All Samples
(§20) Melting curves analysis show melting temperature (Tm) of ˜51° C. Range of RNA concentrations was tested and assay window was determined (conc. range of 0.5-1 μM yields best results). The choice of buffer also affected the Tm. RNA constructs were tested under different buffer conditions (especially in presence of salt) in the thermal shift assay. […] CacoK with 30 mM salt at 1 μM RNA conc. was used to assess compound effects on 3WJ stability. […] These conditions were used for screening test compounds.

[2] = test system: 3WJ_0.0.0_5IB_3FAM construct; experiment: Fluorescence quenching binding assay; conditions: at conc. >5 μM, FIG. 107
Method: This assay will be used to test binding of compounds for RNA three way junction (such as a 38 nt construct). This is a fluorescence quenching assay utilizing FAM as fluorescence tag and Iowa Black as quencher. Tags are attached at the 3′ and 5′ end, respectively. Stable formation of MW upon compound binding would lead to quenching of the FAM fluorescence due to close proximity of the Iowa Black tag. Assay readout: FAM (485-520 nm) Fluorescence Intensity.
as §2, §3
Sample plate: Greiner cat #784076, black, 384 (Dilution plate: Greiner REF 781101, PS-Microplate, 384 well, clear). Fluorescence Intensity device: Envision 1040285
Daily fresh (10 ml): 1 ml 100 mM CacoK pH 7.2 and 0.3 ml 1 M NaCl filled up to 10 ml with Dnase/Rnase Free distilled water
as §6
Heat up the diluted RNA up to 90° C. for 5 min (sealed Eppendorf Tube). […]
Calibration of the expected fluorescence signal at various RNA concentrations in either CacoK or NaPO4 buffers was performed first. Experiments in buffers containing salt show distinct fluorescence quenching behavior. […]

[3] = test system: RNA3WJ_0.0.0_5IB_3FAM (3WJ_0.0.0_5IB_3FAM) RNA three way junction; experiment: Thermal shift binding assay; conditions: RNA:ligand ratios 1:1, 1:3, raw and normalized data
[4] = test system: RNA3WJ_3.0.0_5IB_3FAM; experiment: Thermal shift binding assay; conditions: RNA:ligand ratios 1:1, 1:3
Description: as §1, §2, §3, §4, §5, §6, §7, §8, §9, §10, §11
Add 0.8 μL Compound-Solution ([…]). […]
as §14, §15, §16, §17, §18, §19, §20

[5] = test system: RNA3WJ_1.0.0_5IB_3FAM (cis 3WJ with one unpaired nucleotide); experiment: Thermal shift binding assay; conditions: RNA3WJ_1.0.0_5IB 3FAM; RNA:ligand ratios 1:1, 1:3
Description: as §1, §2, §3, §4, §5, §6, §7, §8, §9, §10, §11, §12, §13, §14, §15, §16, §17, §18, §19, §20
Compounds Ark0000013 and Ark0000014 were also tested in the thermal shift assay against three RNA 3WJ constructs, A) RNA3WJ_1.0.0_5IB_3FAM (cis 3WJ with one unpaired nucleotide); B) Split3WJ.1_up_5IB+Split3WJ.1_down_3FAM (trans 3WJ as 1:1 mix); and C) Split3WJ.2_up_5IB+Split3WJ.2_down_3FAM (trans 3WJ as 1:1 mix).

[6] = RNA3WJ_0.0.0_5IB_3FAM, 1 μM RNA, 8 μM compound, 1% DMSO, 10 mM CacoK pH 7.2, 30 mM NaCl

4-((2S,4S)-4-azido-2-(methyl(12-methyl-13-oxo-15-(2,7,15-tris(8-aminooctanamido)-9,10-[1,2]benzenoanthracen-9(10H)-yl)-3,6,9-trioxa-12-azapentadecyl)carbamoyl)pyrrolidine-1-carbonyl)benzenesulfonyl fluoride [ARK000032]
Temp. Shift [° C.] [1, 6]: +15.0 °C
Melt. Temp. with cmpd [1]: 75.1 °C
Shift melt. Temp. [1]: +15.0 °C

CC(C)(C)OC(=O)NCCCC[C@@H](NC(=O)OC(C)(C)C)C(=O)Nc1ccc2c(c1)C1(CCC(=O)NCCOCCOCCN)c3cc(NC(=O)[C@@H](CCCCNC(=O)OC(C)(C)C)NC(=O)OC(C)(C)C)ccc3C2c2ccc(NC(=O)[C@@H](CCCCNC(=O)OC(C)(C)C)NC(=O)OC(C)(C)C)cc21 [ARK000023]
Melt. Temp. with cmpd [1]: 60.7 °C
Shift melt. Temp. [1]: +0.6 °C

CN(CCOCCOCCN(C)C(=O)[C@@H]1C[C@H](N=[N+]=[N-])CN1C(=O)CCc1ccc(S(=O)(=O)F)cc1)C(=O)CCC12c3cc(NC(=O)CCCCCCCN)ccc3C(c3ccc(NC(=O)CCCCCCCN)cc31)c1ccc(NC(=O)CCCCCCCN)cc12 [ARK000028]
Melt. Temp. with cmpd [1]: 82.3 °C
Shift melt. Temp. [1]: +22.0 °C

[N-]=[N+]=NC[C@H]1O[C@H](O[C@@H]2[C@@H](O)[C@H](O[C@H]3O[C@H](CN)[C@@H](O)[C@H](O)[C@H]3O)[C@@H](N)C[C@H]2N)[C@H](O)[C@@H](N)[C@@H]1O [Ark000007, 6″-Azido-kanamycin A hydrochloride salt]
Concentration dependent influence on the fluorescence signal (quenching effect) [2]: increase of quenching effect
Melting temp [° C.] + cmpd [1, 6]: 65.6 °C
Temp. Shift [° C.] [1, 6]: ~5 °C

C#CCCCC(=O)NC[C@H]1O[C@H](O[C@H]2[C@H](O)[C@@H](O[C@H]3O[C@H](CO)[C@@H](O)[C@H](N)[C@H]3O)[C@H](N)C[C@@H]2N)[C@H](O)[C@@H](O)[C@@H]1O [Ark000008]
Effect on melting temperature (in words) ([1]; 3WJ_0.0.0_5IB_3FAM RNA construct, FIG. 110): very small effect

CN(CCCN)CCCNC(=O)c1ccccc1 [Ark000039]
Effect in the melting curves (in words) [3]: no significant effect
Effect in the melting curves (in words) [4]: lack of effect
Effect in the melting curves (in words) [5]: lack of effect

N,N′,N″-(9-(1-((2S,4S)-4-azido-1-(3-(4-(fluorosulfonyl)benzoyl)pyrrolidin-2-yl)-2,11-dimethyl-1,12-dioxo-5,8-dioxa-2,11-diazatetradecan-14-yl)-9,10-dihydro-9,10-[1,2]benzenoanthracene-2,7,15-triyl)tris(azanediyl))tris(8-aminooctanamide) [ARK000031]
Temp. Shift [° C.] [1, 6]: +24.1 °C
Melt. Temp. with cmpd [1]: 84.1 °C
Shift melt. Temp. [1]: +24.1 °C
